Measurements from PMC10257291, “Biological activities of extracts and compounds from Thai Kae-Lae (Maclura cochinchinensis (Lour.) Corner)” (BMC Complementary Medicine and Therapies, 2023).
Values after ≈ are worked out from the molar mass of the structure shown.

Key:
RAW 264.7 cells = test: RAW 264.7 cell viability by MTT assay; type: cell-based; details: Mus musculus, RAW264.7, read-out: IC20 values (concentrations at 80% of RAW 264.7 cells)
Procedure: Mouse monocyte macrophage RAW 264.7 cells (American Type Culture Collection, […]-71) were stimulated with lipopolysaccharide (LPS) or phytohemagglutinin (PHA). The LPS treated RAW 264.7 cells served as a vehicle control, of which the NO production, and the secreted cytokines were defined as 100%, whereas a negative control was non-treated RAW 264.7 cells. Dexamethasone (an anti-inflammatory drug) was used as a positive control. RAW 264.7 cell viability was also determined with the assay kit using MTT assay. The supernatant was removed, and MTT was added. After 2 h in a CO2 incubator, the supernatant was removed, and the formazan crystal were dissolved with DMSO. The optical density was measured at 578 nm and corrected with the reference wavelength of 630 nm using a multimode detector (Beckman CoulterDTX880, Fullerton, CA, USA). NO inhibitions were calculated using the following equation: […]

PBMCs = test: Cytotoxicity of PBMCs by MTT assay; type: cell-based; details: Homo sapiens, PBMC, 48 h, normal PBMCs, read-out: IC50 values (mean ± SD) PBMCs
Procedure: Method was done as previously described. Briefly, peripheral blood mononuclear cells (PBMCs) were obtained from healthy donors using Ficoll-Hypaque density-gradient centrifugation using Lymphoprep™ solution (Axis-Shield, Oslo, Norway). The PBMCs (1 × 10^6 cells/mL) were cultured in complete RPMI-1640 medium in 96-well plates overnight in a CO2 incubator. […] Then cells were further incubated for 48 h. The survival rate of cells was assessed using the MTT assay.

EoL-1 cells [1] = test: Rate of proliferation, EoL-1 cells; type: cell-based, human; details: for decrease of rate of proliferation, EoL-1 cells: IC20 value, 24 and 48 h (time-response), vs control; for rate of cell proliferation, EoL-1 cells (in words): concentrations IC10 − IC20 values, 48 h
Procedure: (§1) According to the principle of trypan blue exclusion, viable cells with intact membranes can exclude trypan blue dye, while dead cells with compromised membranes are stained by the trypan blue dye solution. A cell suspension and trypan blue dye solution (0.2%) were mixed, and viable and dead cells were counted under microscope using a hemacytometer. Then, the percentage of viable cells was calculated. KG-1a, EoL-1 and K562 cells were cultured with crude fractional extracts and active pure compounds at various concentrations (10 − 20% growth inhibition; IC10 − IC20 values) of each extract for 48 h, at a 20% growth inhibition (IC20 value) of each extract for 24 and 48 h. Following incubation, cells were harvested, and the total cell number was counted using trypan blue exclusion method. Three independent experiments were plotted as a dose–response curve and compared with the vehicle control. Meanwhile, the total cell number of each cell line after fractional extract and pure compound treatments at 24 and 48 h were calculated and plotted as a time-response curve. Slopes from each graph were considered as the rate of cell proliferation.

KG-1a cells = test: Cytotoxicity by MTT assay in KG-1a cells; type: cell-based; details: Homo sapiens, 48 h, read-out: IC50 values (mean ± SD) KG-1a
Procedure: (§2) Leukaemic cell lines including KG-1a (leukaemic stem cell-like cell line with stem cell population), EoL-1 (human […] leukaemic cell line), and K562 (human erythroid leukaemic cell line) were cultured as previously described. The MTT (3-(4,5-dimethylthiazol-2-yl)-2,5-diphenyltetrazolium bromide) assay was used to determine the cytotoxicity of […] extracts and active compounds on leukaemic cells. The method was described previously. K562 (1.0 × 10^5 cells/mL), EoL-1 (3.0 × 10^5 cells/mL), and KG-1a (2.0 × 10^5 cells/mL) were added samples and then incubated for 48 h. The percentage of surviving cells was calculated using the following equation: 1 %Cellviability=Meanabsorbanceintestwell/[…] 50% inhibitory concentration (IC50) was determined as the lowest concentration that inhibited cell growth by 50% compared with the untreated control.

K562 cells [2] = test: Cytotoxicity by MTT assay in K562 cells; type: cell-based; details: Homo sapiens, 48 h, read-out: IC50 values (mean ± SD) K562
Procedure: as §2

IL-2 = IL-2 secretion in PHA-stimulated PBMCs (ELISA); type: cell-based, human; details: sample at IC20 value, vs dexamethasone 1 μg/mL
Text: Mouse monocyte macrophage RAW 264.7 cells (American Type Culture Collection, […]-71) were stimulated with lipopolysaccharide (LPS) or phytohemagglutinin (PHA). The LPS treated RAW 264.7 cells served as a vehicle control, of which the NO production, and the secreted cytokines were defined as 100%, whereas a negative control was non-treated RAW 264.7 cells. Dexamethasone (an anti-inflammatory drug) was used as a positive control. PBMCs (1 × 10^5 cells/well in RPMI-1640 for IL-2) and Raw cells (1 × 10^5 cells/well in DMEM for TNF-α) were seeded for 24 h in a CO2 incubator set at 37 °C and 5% CO2/95% humidified air. Then cells were treated with […] fractional extracts (IC20 value) or pure compounds (IC20 value), or dexamethasone (1 μg/mL) were added. Following 2-h of incubation in a CO2 incubator, LPS was treated for a final dose of 1 μg/mL under conditions of TNF-α measurement. In contrast, PHA was added to induce inflammation in IL-2 measurement. After 24 h, the media were removed and centrifuged at 13,500 × g for 10 min and 100 μL of the supernatant was analysed by the protocol of R&D Systems, Minneapolis, MN, USA using ELISA technique. The absorbance was measured at 450 nm and corrected with the reference wavelength of 570 nm (Beckman CoulterDTX880, Fullerton, CA, USA). Viability of PBMCs and RAW 264.7 cells was also determined using MTT assay as described previously. IL-2 and TNF-α secretion inhibitions were calculated as bellow:4 %Cytokineinhibition=A-B/A×100 A is the optical density of the mixture without the sample, while B is the optical density of the mixture with the sample. Dexamethasone was a positive control. All experiments were done in triplicate.

EoL-1 cells [3] = test: Cytotoxicity by MTT assay in EoL-1 cells; type: cell-based; details: Homo sapiens, EOL1, 48 h, read-out: IC50 values (mean ± SD) EoL-1
Procedure: as §2

RBC haemolysis induction = details: human, 2% red blood cell suspension
Procedure: The whole blood samples were obtained from normal volunteers. Red blood cells were separated by centrifugation and washed 2 times with 0.9% NaCl. Then, 2% RBC suspension was incubated with crude fractional extracts and compounds at 37 °C for 30 min. Triton-X 100 (2%) and NaCl (0.9%) were positive and negative controls, respectively. Then, the supernatant was collected, and haemoglobin concentration was measured by spectrophotometry at 540 nm. The haemolysis induction was calculated using the following equation:5 %Haemolysisinduction=Absorbance of sample/Absorbance of positive contr×100

K562 cells [4] = test: Rate of proliferation, K562 cells; type: cell-based, human; details: for decrease of rate of proliferation, K562 cells: IC20 value, 24 and 48 h (time-response), vs control; for rate of cell proliferation, K562 cells (in words): concentrations IC10 − IC20 values, 48 h
Procedure: as §1

SMILES	IC20 (RAW 264.7 cells) [mg/L]	IC50 (PBMCs) [mg/L]	decrease of rate of proliferation, EoL-1 cells (EoL-1 cells [1])	IC50 (KG-1a cells) [mg/L]	IC50 (K562 cells [2]) [mg/L]	IL-2 inhibition (IL-2)	IC50 (EoL-1 cells [3]) [mg/L]	hemolysis at 30 min, 50 μg/mL (RBC haemolysis induction) [%]	hemolysis at 30 min, 100 μg/mL (RBC haemolysis induction) [%]	hemolysis at 30 min, 150 μg/mL (RBC haemolysis induction) [%]	decrease of rate of proliferation, K562 cells (K562 cells [4])	rate of cell proliferation, K562 cells (in words) (K562 cells [4])	rate of cell proliferation, EoL-1 cells (in words) (EoL-1 cells [1])	hemolysis at 30 min, 10 μg/mL (RBC haemolysis induction) [%]	hemolysis at 30 min, 20 μg/mL (RBC haemolysis induction) [%]	hemolysis at 30 min, 40 μg/mL (RBC haemolysis induction) [%]
O=c1c(O)c(-c2ccc(O)cc2O)oc2cc(O)cc(O)c12 [Morin, 2’,3,4’,5,7-pentahydroxyflavonone]	62.4 ± 7.44 (≈ 206 µM)	> 100	decrease the proliferation rate	> 100	> 100	suppressed IL-2 significantly better than dexamethasone	18.4 ± 1.6 (≈ 60.7 µM)	9.39 ± 1.34	9.82 ± 1.09	10.2 ± 1	decrease the proliferation rate	significant difference at concentrations of 70, 80, and 90 µg/mL				
Oc1ccc(/C=C/c2cc(O)cc(O)c2)cc1 [Resveratrol, resveratrol]	3.4 ± 0.2 (≈ 14.9 µM)	44 ± 9.7 (≈ 193 µM)	95.45%	20.7 ± 2.65 (≈ 90.7 µM)	41.6 ± 1.92 (≈ 182 µM)	suppressed IL-2 significantly better than dexamethasone	5.49 ± 0.29 (≈ 24.1 µM)				93.20%	significantly decreasing rate of cell proliferation	significantly decreasing rate of cell proliferation	8.96 ± 1.83	8.58 ± 0.67	8.95 ± 0.21
O=c1c(O)c(-c2ccc(O)c(O)c2)oc2cc(O)cc(O)c12 [Quercetin, quercetin]	35.5 ± 6.49 (≈ 118 µM)	> 100	significantly decreasing rates of proliferation	72.6 ± 7.45 (≈ 240 µM)	> 100	suppressed IL-2 significantly better than dexamethasone	5.89 ± 0.46 (≈ 19.5 µM)	8.85 ± 0.21	8.74 ± 0.26		significantly decreasing rates of proliferation	significantly decreasing rate of cell proliferation	significantly decreasing rate of cell proliferation	8.51 ± 0.86		
